From the OligoGym collection
Bases are written 5' to 3'; sugars and linkages follow in the same order, as letters with counts (s phosphorothioate, o phosphodiester; PS: all linkages phosphorothioate). The collection does not say whether C is 5-methylated. l = locked nucleic acid (LNA); d = 2'-deoxy (DNA)

The sequences below were run against Tau (assay: rat primary cortical neurons, FLIPR, 25 uM ASO).

Sequence	calcium oscillation score
AATTAGTCACATACCA (sugars l4 d8 l4, PS)	85 % of control
GATATTCATTCCCTCAC (sugars l2 d11 l4, PS)	57.2 % of control
CGTTGCTAAGATCCAG (sugars l3 d10 l3, PS)	9.04 % of control
CTTCTAATTTAGTCACC (sugars l3 d10 l4, PS)	54.6 % of control
AGGGACCCAATCTTCG (sugars l3 d10 l3, PS)	73.3 % of control
CTCAGATTTTACTTCCA (sugars l4 d11 l2, PS)	45.2 % of control
AAAGCAGGTTAAGTGATTAA (sugars l3 d14 l3, PS)	2.59 % of control
CTTTGTAATTCCTTCTCT (sugars l2 d13 l3, PS)	63.3 % of control
CCCCATTTATCCTTCATG (sugars l2 d14 l2, PS)	49.4 % of control
TGTCCAAACTTTTACT (sugars l4 d8 l4, PS)	60.8 % of control
TTAATTTCACCCTC (sugars l3 d8 l3, PS)	44.1 % of control
CTCTCTGCATATATAAT (sugars l4 d9 l4, PS)	72.2 % of control
CATATTCTTCCCTTAATAA (sugars l3 d13 l3, PS)	68 % of control
GAAGTCCCGAGCCAAAGCCG (sugars l3 d14 l3, PS)	5.18 % of control
CTGGTTTATGATGGATGTTG (sugars l3 d14 l3, PS)	0 % of control
TATTTCCAAATTCACTTTTA (sugars l3 d14 l3, PS)	≥ 200 % of control
CATCAGCCTTCATCACA (sugars l4 d11 l2, PS)	91.8 % of control
TCTGGCATGGGCACG (sugars l3 d9 l3, PS)	119 % of control
CCCATCAATTTGGAAAGATG (sugars l3 d14 l3, PS)	58.1 % of control
AGAATATTACACCATC (sugars l4 d8 l4, PS)	102 % of control
GTAGACTATTTGCAC (sugars l3 d9 l3, PS)	95.2 % of control
CACTTTACACATTAAATTTA (sugars l4 d12 l4, PS)	60.9 % of control

Sequence	calcium oscillation score
AGTCCCGAGCCAAAG (sugars l3 d9 l3, PS)	36.6 % of control
ACTAATATTAACACTAT (sugars l4 d9 l4, PS)	79.5 % of control
TTATTCTTTTTTTTTCCACA (sugars l2 d14 l4, PS)	30.3 % of control
CAGATATTCATTCCCTC (sugars l2 d12 l3, PS)	64.4 % of control
TACCAATTATCTTTAAATTC (sugars l4 d12 l4, PS)	64.4 % of control
ACATGCTAATCAATAC (sugars l4 d8 l4, PS)	57.8 % of control
TATTTCCAAATTCACTTTTA (sugars llldlddddddddddldlll, PS)	129 % of control
ATCTTAATTCATTTAATTCT (sugars l4 d12 l4, PS)	93.1 % of control
TACAGTCATTTCATTAC (sugars l4 d9 l4, PS)	64.9 % of control
CCTAAAGTCCCAGGTC (sugars l3 d10 l3, PS)	62.9 % of control
TCCACAAACCAACTCAAC (sugars l4 d12 l2, PS)	95.9 % of control
CCCCACCCAAACTCCAAG (sugars l1 d15 l2, PS)	46.2 % of control
GTCCTAATCCTGTGCT (sugars l3 d10 l3, PS)	87.8 % of control
AACTCATTTACCAATTATCT (sugars l4 d13 l3, PS)	67.3 % of control
GAGCCACACTTGGAGGTCAC (sugars l3 d14 l3, PS)	0 % of control
AGTGACAGAAGAGACG (sugars l3 d10 l3, PS)	9.04 % of control
CAATTTGGAAAGATGAAATT (sugars l3 d14 l3, PS)	3.89 % of control
GCAAACCACTCTTATTC (sugars l4 d10 l3, PS)	86.8 % of control
TTTGATAAAACATCCC (sugars l4 d8 l4, PS)	89 % of control
ACTATGAAATCCTTCT (sugars l4 d8 l4, PS)	92.1 % of control
CTTCCAGTCCCGTCTT (sugars l3 d10 l3, PS)	0 % of control
AGGTCAACTGGTTTGTAGAC (sugars l3 d14 l3, PS)	0 % of control

Sequence	calcium oscillation score
CCCGAGCCAAAGCC (sugars l3 d8 l3, PS)	52.2 % of control
CTCAAGAAATGGTTTGCTAC (sugars l3 d14 l3, PS)	23.8 % of control
TAGACCACATTTCCATC (sugars l3 d11 l3, PS)	79.1 % of control
TTACTTTCTACTCAATTCCA (sugars l3 d15 l2, PS)	60.6 % of control
TCCCTTTCAAACCAGC (sugars l2 d10 l4, PS)	92.3 % of control
GCCCACCCATCAATTTGGAA (sugars l3 d14 l3, PS)	1.3 % of control
TTTTTTATTCATAACTTTTC (sugars l4 d12 l4, PS)	63.8 % of control
CCATGATCTTAGGCTG (sugars l3 d10 l3, PS)	17.6 % of control
GTGGGTGATATTGTCCAGGG (sugars l3 d14 l3, PS)	0 % of control
CAGCTTGTGGGTTTCAATCT (sugars l3 d14 l3, PS)	0 % of control
ATCCTGGTGGCGTTGGCCTG (sugars l3 d14 l3, PS)	0 % of control
TACTTTATTCCCTTAACAAT (sugars l2 d14 l4, PS)	91.3 % of control
ATATCATATCCTAAGC (sugars l4 d9 l3, PS)	50.9 % of control
ATCTCAAGTCTTATTCT (sugars l4 d9 l4, PS)	48.8 % of control
GTCTTTGCTTTTACTGACCA (sugars l3 d14 l3, PS)	44.4 % of control
CATTTCTGGAAGGTTCTTTC (sugars l3 d14 l3, PS)	23.9 % of control
TAATTCATAAATGACTATAC (sugars l3 d14 l3, PS)	72.5 % of control
TTTATTTCCAAATTCACTTT (sugars lldllddddddddddlldll, PS)	106 % of control
CATTAACCCTTGATCATATT (sugars l3 d14 l3, PS)	36.3 % of control
CCAATTAACCGAACTGCGAG (sugars l3 d14 l3, PS)	41.4 % of control
CCTTACTTTCTACTCAAT (sugars l2 d12 l4, PS)	62.1 % of control
TTTATCCCTCCATGATT (sugars l2 d12 l3, PS)	58.8 % of control

Sequence	calcium oscillation score
AATAAGAAAGGAACGC (sugars l3 d9 l4, PS)	85.7 % of control
TGGTTAGCCCTAAAGT (sugars l3 d10 l3, PS)	77 % of control
TCCCCATTTATCCTTCA (sugars l2 d13 l2, PS)	65.9 % of control
ACTTTTGAACCCATTCC (sugars l2 d12 l3, PS)	83.6 % of control
CTCAAAAATCAACGCCT (sugars l3 d10 l4, PS)	57 % of control
TTGCCTAATGAGCCACACTT (sugars l3 d14 l3, PS)	36.5 % of control
CGCACCAGGAACCTTCCAGA (sugars l3 d14 l3, PS)	28.2 % of control
TAATCACTCATGCCTT (sugars l4 d8 l4, PS)	65.6 % of control
CCTCTCCTTTAAGAAAA (sugars l4 d10 l3, PS)	74.9 % of control
ATGGATGTTGCCTAATGAGC (sugars l3 d14 l3, PS)	0 % of control
TTTATTTCCAAATTCACTTT (sugars l3 d14 l3, PS)	≥ 200 % of control
GAACTGGTTAGCCCTA (sugars l3 d10 l3, PS)	79.9 % of control
GTGGCGGTGACTGCGA (sugars l3 d10 l3, PS)	62.6 % of control
TTCGAAACCAAGGTCCCACC (sugars l3 d14 l3, PS)	27.5 % of control
TATCATATCCTAAGCA (sugars l3 d9 l4, PS)	76 % of control
CCATTATCTCACTGCTT (sugars l3 d12 l2, PS)	29.3 % of control
TATCCAGCCATATTTCAACT (sugars l3 d14 l3, PS)	47.6 % of control
CACCTCCTGGTTTATG (sugars l3 d10 l3, PS)	65.3 % of control
CCTTTTCTACTCTACTC (sugars l3 d12 l2, PS)	70.9 % of control
TATTTCCAAATTCACTTTTA (sugars lldlldddddddddllddll, PS)	114 % of control
CTTGGCTTTGGCGTTC (sugars l3 d10 l3, PS)	2.61 % of control
AGGGACGTGGGTGATATTGT (sugars l3 d14 l3, PS)	1.3 % of control

Sequence	calcium oscillation score
CATGATTGTGGGCTTA (sugars l3 d10 l3, PS)	0 % of control
AGCCCATTTACAATTCA (sugars l2 d11 l4, PS)	76.7 % of control
GTCACCACTTTAATCT (sugars l4 d9 l3, PS)	85.3 % of control
CGATGCTGCCGGTGGA (sugars l3 d10 l3, PS)	2.61 % of control
CCAATACTAGATCTAT (sugars l4 d8 l4, PS)	64.7 % of control
CAGGGAGGCAGACACCTCGT (sugars l3 d14 l3, PS)	50.9 % of control
TCCTCTCCTTTAAGAAA (sugars l3 d12 l2, PS)	79.1 % of control
ATCCTAAGTCAACCACA (sugars l2 d11 l4, PS)	69 % of control
CATTTTTTATTCATAACTTT (sugars l4 d12 l4, PS)	59.4 % of control
TCAACTCTTAGCATCCA (sugars l4 d11 l2, PS)	37.5 % of control
CAGCTAAGACCCTCAGGTTT (sugars l3 d14 l3, PS)	38.5 % of control
TAGCCCTAAAGTCCCAGGTC (sugars l3 d14 l3, PS)	54 % of control
CACCCATCAATTTGGAAAGA (sugars l3 d14 l3, PS)	91.5 % of control
TAATTCCCAAATTCCTCATA (sugars l2 d14 l4, PS)	53.9 % of control
AACTTACCAGTTTTTCA (sugars l4 d9 l4, PS)	62.3 % of control
CCAGGGACCCAATCTT (sugars l3 d10 l3, PS)	76 % of control
CTCAACATTACCCTTAAATA (sugars l4 d14 l2, PS)	57.6 % of control
AGCTTCGTCTTCCAGGCTGG (sugars l3 d14 l3, PS)	13.3 % of control
TCTTAGTCATCTTCCCT (sugars l3 d12 l2, PS)	68.6 % of control
TTGTCCAGGGACCCAATCTT (sugars l3 d14 l3, PS)	3.32 % of control
